From publication PMC9142520, “Molecular encoding and synaptic decoding of context during salt chemotaxis in C. elegans” (Nature Communications, 2022)

Molecular target: T1, GLR-1(+STG-1, SOL-1) (Caenorhabditis elegans, UniProt P34299)
T1 construct: cRNAs of GLR-1, SOL-1 and STG-1 co-injected into Xenopus laevis oocytes; homomeric GLR-1 with auxiliary proteins; with CUB domain-containing protein SOL-1 (suppressor of lurcher 1); Stargazin-like protein STG-1
T1 sequence (P34299 26-962): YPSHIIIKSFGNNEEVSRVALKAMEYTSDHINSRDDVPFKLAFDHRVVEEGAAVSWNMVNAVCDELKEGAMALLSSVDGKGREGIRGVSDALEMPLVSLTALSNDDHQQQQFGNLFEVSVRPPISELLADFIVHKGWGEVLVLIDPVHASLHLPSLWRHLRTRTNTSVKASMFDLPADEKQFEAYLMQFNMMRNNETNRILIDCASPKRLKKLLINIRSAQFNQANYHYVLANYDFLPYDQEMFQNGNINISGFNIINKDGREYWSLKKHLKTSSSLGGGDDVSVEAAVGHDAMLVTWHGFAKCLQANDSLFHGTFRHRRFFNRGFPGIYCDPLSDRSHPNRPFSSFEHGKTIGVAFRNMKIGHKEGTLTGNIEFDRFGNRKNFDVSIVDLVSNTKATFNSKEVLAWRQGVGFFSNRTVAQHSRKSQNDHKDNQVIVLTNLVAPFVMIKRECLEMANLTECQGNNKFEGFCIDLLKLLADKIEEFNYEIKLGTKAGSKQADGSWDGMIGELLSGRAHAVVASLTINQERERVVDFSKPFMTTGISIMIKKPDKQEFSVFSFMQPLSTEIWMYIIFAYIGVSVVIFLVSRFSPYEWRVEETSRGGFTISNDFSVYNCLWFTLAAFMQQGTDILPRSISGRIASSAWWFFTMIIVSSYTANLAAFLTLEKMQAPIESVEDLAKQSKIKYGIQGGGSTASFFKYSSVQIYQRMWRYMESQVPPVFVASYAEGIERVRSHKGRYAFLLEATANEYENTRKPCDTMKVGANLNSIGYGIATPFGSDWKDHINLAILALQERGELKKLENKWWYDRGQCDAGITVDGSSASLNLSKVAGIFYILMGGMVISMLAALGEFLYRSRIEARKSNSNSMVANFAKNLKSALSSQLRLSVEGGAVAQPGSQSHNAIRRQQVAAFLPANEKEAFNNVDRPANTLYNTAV
T1 sequence (Q15KL0 1-366 partner): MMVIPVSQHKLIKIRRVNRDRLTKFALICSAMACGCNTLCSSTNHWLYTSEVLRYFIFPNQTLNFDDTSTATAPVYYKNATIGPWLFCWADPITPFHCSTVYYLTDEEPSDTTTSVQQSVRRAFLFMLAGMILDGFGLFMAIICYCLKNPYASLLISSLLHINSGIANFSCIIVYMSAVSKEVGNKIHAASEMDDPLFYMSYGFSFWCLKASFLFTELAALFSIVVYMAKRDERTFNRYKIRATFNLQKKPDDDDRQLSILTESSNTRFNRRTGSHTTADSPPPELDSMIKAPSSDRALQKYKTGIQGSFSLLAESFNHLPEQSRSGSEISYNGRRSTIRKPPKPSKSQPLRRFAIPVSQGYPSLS
T1 sequence (Q93212 24-594 partner): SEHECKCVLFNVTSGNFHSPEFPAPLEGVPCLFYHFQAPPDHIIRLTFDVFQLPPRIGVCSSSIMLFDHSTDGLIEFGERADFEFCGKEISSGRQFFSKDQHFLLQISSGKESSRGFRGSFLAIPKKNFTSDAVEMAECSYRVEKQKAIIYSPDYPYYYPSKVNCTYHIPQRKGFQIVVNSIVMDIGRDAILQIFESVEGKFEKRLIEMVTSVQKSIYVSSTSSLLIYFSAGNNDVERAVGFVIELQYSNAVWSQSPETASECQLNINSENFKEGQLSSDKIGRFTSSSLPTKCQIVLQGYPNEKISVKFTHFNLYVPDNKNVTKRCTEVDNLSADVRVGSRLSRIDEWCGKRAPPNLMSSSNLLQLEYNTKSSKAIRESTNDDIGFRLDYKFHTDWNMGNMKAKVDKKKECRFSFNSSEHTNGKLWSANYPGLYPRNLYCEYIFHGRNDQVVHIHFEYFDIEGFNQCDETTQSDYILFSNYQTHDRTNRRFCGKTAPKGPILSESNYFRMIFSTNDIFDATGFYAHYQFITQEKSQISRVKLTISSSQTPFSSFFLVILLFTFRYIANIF
Test: two-electrode voltage clamp of Xenopus oocytes, glutamate dose-response current
Type: cell-based
Conditions: agonist; inward cation current; with SOL-1 and STG-1; clamped -50 to -60 mV; pH 7.2; 0.1-10 mM glutamate for 20 s

For `N[C@@H](CCC(=O)O)C(=O)O` [glutamate], the “two-electrode voltage clamp of Xenopus oocytes, glutamate dose-response current” value was “Dose-response relationship of GLR-1-expressing Xenopus oocyte”.
